Assays:
Assay type in all cases: cell-based
panel of 168 GPCRs [1] = target: panel of 168 GPCRs (Homo sapiens, UniProt O43613); conditions: GPCR HCRTR1; agonist, 10 μM
panel of 168 GPCRs [2] = target: panel of 168 GPCRs (Homo sapiens, UniProt O43614); conditions: GPCR HCRTR2; agonist, 10 μM
panel of 168 GPCRs [3] = target: panel of 168 GPCRs (Homo sapiens, UniProt P08588); conditions: GPCR ADRB1; agonist, 10 μM
panel of 168 GPCRs [4] = target: panel of 168 GPCRs (Homo sapiens, UniProt P0DMS8); conditions: GPCR ADORA3; agonist, 10 μM
panel of 168 GPCRs [5] = target: panel of 168 GPCRs (Homo sapiens, UniProt P11229); conditions: GPCR CHRM1; agonist, 10 μM
panel of 168 GPCRs [6] = target: panel of 168 GPCRs (Homo sapiens, UniProt P18089); conditions: GPCR ADRA2B; agonist, 10 μM
panel of 168 GPCRs [7] = target: panel of 168 GPCRs (Homo sapiens, UniProt P20309); conditions: GPCR CHRM3; agonist, 10 μM
panel of 168 GPCRs [8] = target: panel of 168 GPCRs (Homo sapiens, UniProt P21462); conditions: GPCR FPR1; agonist, 10 μM
panel of 168 GPCRs [9] = target: panel of 168 GPCRs (Homo sapiens, UniProt P21554); conditions: GPCR CNR1; agonist, 10 μM
panel of 168 GPCRs [10] = target: panel of 168 GPCRs (Homo sapiens, UniProt P21731); conditions: GPCR TBXA2R; agonist, 10 μM
panel of 168 GPCRs [11] = target: panel of 168 GPCRs (Homo sapiens, UniProt P25021); conditions: GPCR HRH2; agonist, 10 μM
panel of 168 GPCRs [12] = target: panel of 168 GPCRs (Homo sapiens, UniProt P25101); conditions: GPCR EDNRA; agonist, 10 μM
panel of 168 GPCRs (Homo sapiens, UniProt P25101), sequence (P25101 21-427 limits assumed): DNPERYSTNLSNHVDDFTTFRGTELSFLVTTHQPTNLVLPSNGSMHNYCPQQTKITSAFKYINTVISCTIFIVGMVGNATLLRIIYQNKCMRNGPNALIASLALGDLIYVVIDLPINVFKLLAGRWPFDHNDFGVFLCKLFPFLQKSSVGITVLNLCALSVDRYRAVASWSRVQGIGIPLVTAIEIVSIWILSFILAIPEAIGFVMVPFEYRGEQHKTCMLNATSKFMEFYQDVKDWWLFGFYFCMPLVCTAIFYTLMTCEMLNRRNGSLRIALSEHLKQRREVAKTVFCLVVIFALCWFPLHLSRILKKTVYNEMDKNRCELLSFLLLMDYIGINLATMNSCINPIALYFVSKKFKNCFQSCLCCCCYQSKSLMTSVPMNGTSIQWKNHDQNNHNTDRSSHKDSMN

panel of 168 GPCRs [13] = target: panel of 168 GPCRs (Homo sapiens, UniProt P25106); conditions: GPCR CXCR7; agonist, 10 μM
panel of 168 GPCRs [14] = target: panel of 168 GPCRs (Homo sapiens, UniProt P25116); conditions: GPCR F2R; agonist, 10 μM
panel of 168 GPCRs (Homo sapiens, UniProt P25116), sequence (P25116 22-425 limits assumed): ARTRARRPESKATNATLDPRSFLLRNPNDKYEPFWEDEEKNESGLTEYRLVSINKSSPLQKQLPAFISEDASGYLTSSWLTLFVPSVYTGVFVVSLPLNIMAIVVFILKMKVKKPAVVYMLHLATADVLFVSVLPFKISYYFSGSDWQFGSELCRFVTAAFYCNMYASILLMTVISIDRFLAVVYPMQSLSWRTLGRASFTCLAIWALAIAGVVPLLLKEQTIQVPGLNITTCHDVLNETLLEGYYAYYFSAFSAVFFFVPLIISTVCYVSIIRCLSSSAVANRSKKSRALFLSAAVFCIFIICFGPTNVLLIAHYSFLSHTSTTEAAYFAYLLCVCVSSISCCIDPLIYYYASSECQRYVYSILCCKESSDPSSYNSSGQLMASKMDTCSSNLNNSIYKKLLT

panel of 168 GPCRs [15] = target: panel of 168 GPCRs (Homo sapiens, UniProt P28223); conditions: GPCR HTR2A; agonist, 10 μM
panel of 168 GPCRs [16] = target: panel of 168 GPCRs (Homo sapiens, UniProt P30518); conditions: GPCR AVPR2; agonist, 10 μM
panel of 168 GPCRs [17] = target: panel of 168 GPCRs (Homo sapiens, UniProt P30550); conditions: GPCR GRPR; agonist, 10 μM
panel of 168 GPCRs [18] = target: panel of 168 GPCRs (Homo sapiens, UniProt P30872); conditions: GPCR SSTR1; agonist, 10 μM
panel of 168 GPCRs [19] = target: panel of 168 GPCRs (Homo sapiens, UniProt P30874); conditions: GPCR SSTR2; agonist, 10 μM
panel of 168 GPCRs [20] = target: panel of 168 GPCRs (Homo sapiens, UniProt P32248); conditions: GPCR CCR7; agonist, 10 μM
panel of 168 GPCRs (Homo sapiens, UniProt P32248), sequence (P32248 25-378 limits assumed): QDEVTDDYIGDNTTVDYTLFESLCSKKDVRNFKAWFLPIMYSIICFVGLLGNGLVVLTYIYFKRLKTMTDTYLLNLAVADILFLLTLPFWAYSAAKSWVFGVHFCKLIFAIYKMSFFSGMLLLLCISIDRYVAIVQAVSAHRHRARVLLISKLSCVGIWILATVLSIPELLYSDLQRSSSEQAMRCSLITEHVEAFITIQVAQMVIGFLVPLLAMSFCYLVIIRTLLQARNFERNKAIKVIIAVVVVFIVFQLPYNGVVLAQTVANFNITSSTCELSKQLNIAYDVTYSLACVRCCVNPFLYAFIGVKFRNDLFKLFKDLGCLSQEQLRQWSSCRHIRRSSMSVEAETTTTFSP

panel of 168 GPCRs [21] = target: panel of 168 GPCRs (Homo sapiens, UniProt P33032); conditions: GPCR MC5R; agonist, 10 μM
panel of 168 GPCRs [22] = target: panel of 168 GPCRs (Homo sapiens, UniProt P35408); conditions: GPCR PTGER4; agonist, 10 μM
panel of 168 GPCRs [23] = target: panel of 168 GPCRs (Homo sapiens, UniProt P41586); conditions: GPCR ADCYAP1R1; agonist, 10 μM
panel of 168 GPCRs (Homo sapiens, UniProt P41586), sequence (P41586 21-468 limits assumed): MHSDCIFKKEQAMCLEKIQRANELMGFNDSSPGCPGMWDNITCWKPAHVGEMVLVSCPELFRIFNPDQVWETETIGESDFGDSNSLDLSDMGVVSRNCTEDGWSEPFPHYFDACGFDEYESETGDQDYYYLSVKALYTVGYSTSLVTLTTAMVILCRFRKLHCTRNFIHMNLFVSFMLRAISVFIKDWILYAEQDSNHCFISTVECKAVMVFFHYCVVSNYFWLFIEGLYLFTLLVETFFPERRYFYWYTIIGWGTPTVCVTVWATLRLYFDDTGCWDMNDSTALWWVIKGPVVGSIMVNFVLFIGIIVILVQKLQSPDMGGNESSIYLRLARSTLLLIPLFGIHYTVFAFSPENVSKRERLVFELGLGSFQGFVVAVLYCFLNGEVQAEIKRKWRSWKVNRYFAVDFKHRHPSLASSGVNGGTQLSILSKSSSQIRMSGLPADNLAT

panel of 168 GPCRs [24] = target: panel of 168 GPCRs (Homo sapiens, UniProt P43119); conditions: GPCR PTGIR; agonist, 10 μM
panel of 168 GPCRs [25] = target: panel of 168 GPCRs (Homo sapiens, UniProt P49682); conditions: GPCR CXCR3; agonist, 10 μM
panel of 168 GPCRs [26] = target: panel of 168 GPCRs (Homo sapiens, UniProt P51582); conditions: GPCR P2RY4; agonist, 10 μM
panel of 168 GPCRs [27] = target: panel of 168 GPCRs (Homo sapiens, UniProt Q01726); conditions: GPCR MC1R; agonist, 10 μM
panel of 168 GPCRs [28] = target: panel of 168 GPCRs (Homo sapiens, UniProt Q15077); conditions: GPCR P2RY6; agonist, 10 μM
panel of 168 GPCRs [29] = target: panel of 168 GPCRs (Homo sapiens, UniProt Q99788); conditions: GPCR CMKLR1; agonist, 10 μM
panel of 168 GPCRs [30] = target: panel of 168 GPCRs (Homo sapiens, UniProt Q9H244); conditions: GPCR P2RY12; agonist, 10 μM
panel of 168 GPCRs [31] = target: panel of 168 GPCRs (Homo sapiens, UniProt Q9UBY5); conditions: GPCR EDG7; agonist, 10 μM
panel of 168 GPCRs [32] = target: panel of 168 GPCRs (Homo sapiens, UniProt Q9UKP6); conditions: GPCR UTR2; agonist, 10 μM

COc1ccc(OCCN2CCN(C(=O)c3cc4ccccc4[nH]3)CC2)cc1 [Compound 1, (1H-indol-2-yl)(4-(2-(4-methoxyphenoxy)ethyl)piperazin-1-yl)methanone]
β-Arrestin Recruitment activity (panel of 168 GPCRs [1]): 0%
β-Arrestin Recruitment activity (panel of 168 GPCRs [2]): 0%
β-Arrestin Recruitment activity (panel of 168 GPCRs [3]): 3%
β-Arrestin Recruitment activity (panel of 168 GPCRs [4]): 8%
β-Arrestin Recruitment activity (panel of 168 GPCRs [5]): 5%
β-Arrestin Recruitment activity (panel of 168 GPCRs [6]): −4%
β-Arrestin Recruitment activity (panel of 168 GPCRs [7]): 0%
β-Arrestin Recruitment activity (panel of 168 GPCRs [8]): 5%
β-Arrestin Recruitment activity (panel of 168 GPCRs [9]): 5%
β-Arrestin Recruitment activity (panel of 168 GPCRs [10]): 0%
β-Arrestin Recruitment activity (panel of 168 GPCRs [11]): 3%
β-Arrestin Recruitment activity (panel of 168 GPCRs [12]): 0%
β-Arrestin Recruitment activity (panel of 168 GPCRs [13]): 3%
β-Arrestin Recruitment activity (panel of 168 GPCRs [14]): 5%
β-Arrestin Recruitment activity (panel of 168 GPCRs [15]): 4%
β-Arrestin Recruitment activity (panel of 168 GPCRs [16]): 4%
β-Arrestin Recruitment activity (panel of 168 GPCRs [17]): 0%
β-Arrestin Recruitment activity (panel of 168 GPCRs [18]): 0%
β-Arrestin Recruitment activity (panel of 168 GPCRs [19]): 0%
β-Arrestin Recruitment activity (panel of 168 GPCRs [20]): 4%
β-Arrestin Recruitment activity (panel of 168 GPCRs [21]): 5%
β-Arrestin Recruitment activity (panel of 168 GPCRs [22]): 6%
β-Arrestin Recruitment activity (panel of 168 GPCRs [23]): 6%
β-Arrestin Recruitment activity (panel of 168 GPCRs [24]): 4%
β-Arrestin Recruitment activity (panel of 168 GPCRs [25]): 5%
β-Arrestin Recruitment activity (panel of 168 GPCRs [26]): 13%
β-Arrestin Recruitment activity (panel of 168 GPCRs [27]): 5%
β-Arrestin Recruitment activity (panel of 168 GPCRs [28]): 6%
β-Arrestin Recruitment activity (panel of 168 GPCRs [29]): 0%
β-Arrestin Recruitment activity (panel of 168 GPCRs [30]): 4%
β-Arrestin Recruitment activity (panel of 168 GPCRs [31]): 6%
β-Arrestin Recruitment activity (panel of 168 GPCRs [32]): 0%

Source: US11634404B2 (priority 2016, dated 2023)
